Here are results for one compound from patent US20220249413A1, “SWELL 1 MODULATORS FOR TREATMENT OF NON-ALCOHOLIC FATTY LIVER DISEASE, IMMUNE DEFICIENCIES, MALE INFERTILITY AND VASCULAR DISEASES” (priority 2019, published 2022).

Holding throughout (format): in vivo, mouse
Data set [1] can be described thus: Tolerability during chronic injection protocols. The following applies: daily injections for up to 8 weeks, 5 mg/kg i.p. The source says:
Patients Human islets and adipocytes were obtained and cultured as described previously (Zhang et al., Nat Cell Biol, 19, 504-517, 2017; Kang et al., Nature Communications, 9, 367, 2018). The Patients involved in the study were anonymous and information such as gender, age, HbA1c, glucose levels and BMI only were available to the research team. The study was approved and carried out as per the guidelines of the University of Iowa Institutional Review Board (IRB). Animals All experimental procedures involving mice were approved by the Institutional Animal Care and Use Committee of the University of Iowa and Washington University at St. Louis. All C57BL/6 mice involved in study were purchased from Charles River Labs. Both KK.Cg-Ay/J (KKA^y) and KK.Cg-Aa/J (KKA^a) mice involved in study were gender and age-matched mice obtained from Jackson Labs (Stock No: 002468) and bred up for experiments. The mice were fed ad libitum with either regular chow (RC) or high-fat diet (Research Diets, Inc., 60 kcal % fat) with free access to water and housed in a light-, temperature- and humidity-controlled room. For high-fat diet (HFD) studies, only male mice were used and were started on HFD regimen at the age of 6-9 weeks. For all experiments involving KKA^y and KKA^a mice, both males and females were used at approximately 50/50 ratio. […] Based on GFP fluorescence, viral transduction efficiency was ˜90%.

Data set [2] is described as follows: Glucose-stimulated insulin secretion (plasma insulin and islet perifusion). The following applies: 21 weeks HFD mice.
Data set [3] can be described thus: NAFLD assessment: liver weight, histology, triglycerides, NAS in HFD mice. The following applies: HFD mice treated chronically and intermittently over 21 weeks. As to the method: Liver isolation, triglycerides and histology HFD mice treated with either vehicle or Smod1 were anesthesized with […] followed by cervical dislocation. Gross liver weights were measured and identical sections from right medial lobe of liver were dissected for further examinations. Total triglyceride content was determined by homogenizing 10-50 mg of tissue in 1.5 ml of chloroform:methanol (2:1 v/v) and centrifuged at 12000 rpm for 10 mins at 4° C. An aliquot, 20 ul, was evaporated in a 1.5 ml microcentrifuge tube for 30 mins. Triglyceride content was determined by adding 100 μl of Infinity Triglyceride Reagent (Fisher Scientific) to the dried sample followed by 30 min incubation at RT. The samples were then transferred to a 96 well plate along with standards (0-2000 mg/dl) and absorbance was measured at 540 nm and the final concentration was determined by normalizing to tissue weight. For histological examination, liver sections were fixed in 10% zinc formalin and paraffin embedded for sectioning. Haematoxylin and eosin (H&E) stained sections were then assessed for steatosis grade, lobular inflammation and hepatocyte ballooning for non-alcoholic fatty liver disease (NAFLD) scoring as described (Kleiner et al., Hepatology, 41, 1313-1321, 2005; Liang et al., PLoS One, 9, e115922, 2014; Rauckhorst et al., Mol Metab, 6, 1468-1479, 2017).

`CCCCC1(C2CCCC2)Cc2cc(OCCCC(=O)O)c(Cl)c(Cl)c2C1=O` (stereo not drawn) [Smod1, 4-[(2-Butyl-6,7-dichloro-2-cyclopentyl-2,3-dihydro-1-oxo-1H-inden-5-yl)oxy]butanoic acid]: the signs of toxicity result in data set [1] is recorded as “no overt signs of toxicity”. Further, in data set [2], the “glucose-stimulated insulin secretion (GSIS), serum insulin and perifusion of isolated islets” value is reported as “significantly improved”. Also, in data set [3], the “hepatic steatosis on histology” value is on record as “marked reduction” and the liver triglycerides entry is “marked reduction”. The liver weights result in data set [3] (5 mg/kg i.p.) is “marked reduction”. Moreover, the “NAFLD activity score (NAS)” value in data set [3] (vs vehicle) was “significantly improved”.
